The values that follow come from patent US9718817B2, “Aryl and heteroaryl ether compounds as ROR gamma modulators” (Glenmark Pharmaceuticals S.A., priority 2014, dated 2017).

For this experiment, the target named is T1, GST-tagged ROR gamma ligand binding domain (LBD) (Homo sapiens, UniProt P51449).
T1 construct: purchased Invitrogen
T1 sequence (P51449 269-508 limits assumed): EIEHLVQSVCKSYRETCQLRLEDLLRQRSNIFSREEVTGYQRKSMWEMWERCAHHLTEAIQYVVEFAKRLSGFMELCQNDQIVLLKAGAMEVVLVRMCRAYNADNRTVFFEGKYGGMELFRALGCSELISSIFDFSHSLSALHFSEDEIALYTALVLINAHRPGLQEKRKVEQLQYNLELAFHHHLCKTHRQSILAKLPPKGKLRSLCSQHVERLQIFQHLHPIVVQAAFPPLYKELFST
Nature of the experiment: TR-FRET assay for ROR gamma (LanthaScreen co-activator peptide recruitment). The experiment is classed as biochemical. To be noted: for IC50: class symbols, from dose response curve; for inhibition at 1 µM: compound 1 μM; for inhibition at 1 µM / inhibition at 10 µM: TR-FRET ratio 520/495, percent of control; for inhibition at 10 µM: compound 10 μM. From the text: The compounds described herein were screened for ROR gamma modulator activity using the TR-FRET assay by Lantha Screen as described in JBC 2011, 286, 26: 22707-10; and Drug Metabolism and Disposition 2009, 37, 10: 2069-78.
The assay is based on the principle that binding of the agonist to the ROR gamma causes a conformational change around helix 12 in the ligand binding domain, resulting in higher affinity for the co-activator peptide. ROR gamma being constitutively active, the Fluorescein-D22 co-activator peptide used in the assay is recruited in the absence of a ligand. Binding of the co-activator peptide, causes an increase in the TR-FRET signal while binding of an antagonist decreases the recruitment of the co-activator peptide, causing a decrease in the TR-FRET signal compared to control with no compound. The assay was performed using a two-step procedure, pre-incubation step with the compound followed by the detection step on addition of the anti-GST tagged terbium (Tb) and fluorescein tagged fluorophores as the acceptor.
Test compounds or reference compounds such as T0901317 (Calbiochem) were dissolved in dimethylsulfoxide (DMSO) to prepare 10.0 mM stock solutions and diluted to the desired concentration. The final concentration of DMSO in the reaction was 4% (v/v). The assay mixture was prepared by mixing 10 nM of the GST-tagged ROR gamma ligand binding domain (LBD) in the assay buffer containing 25 mM HEPES (pH 7.4), 100 mM NaCl, 5 mM DTT and 0.01% BSA with or without the desired concentration of the compound. The reaction was incubated at 22° C. for 1 hour. The pre-incubation step was terminated by addition of the detection mixture containing 300 nM Fluorescein-D22 co-activator peptide and 10 nM lantha screen Tb-anti GST antibody into the reaction mixture. After shaking for 5 minutes the reaction was further incubated for 1 hour at room temperature and read at 4° C. on an Infinite F500 reader as per the kit instructions (Invitrogen). The inhibition of test compound was calculated based on the TR-FRET ratio of 520/495. The activity was calculated as a percent of control reaction. IC50 values were calculated from dose response curve by nonlinear regression analysis using GraphPad Prism software.
Percentage inhibition at concentrations of 1.0 μM and 10.0 μM are given in the table along with IC50 (nM) details for selected examples.
A general note: TR-FRET usually uses a lanthanide donor and a delayed reading to cut background.

For the compound `CCn1c(C2(Oc3ccc(NC(=O)Cc4ccc(S(=O)(=O)CC)cc4)cc3)CC2)nc2ccc(Cl)cc21` [Example 23, N-(4-{[1-(6-Chloro-1-ethyl-1H-benzimidazol-2-yl)cyclopropyl]oxy}phenyl)-2-[4-(ethylsulfonyl)phenyl]acetamide], the IC50 (as a rule, the concentration that inhibits the measured activity by half) is > 100 nM; the inhibition (in general, the percentage by which the read-out fell short of the control) at 1 µM worked out at 69.6%; the inhibition at 10 µM is 86%.

For `CCn1c(C2(Oc3ccc(NC(=O)Cc4ccc(S(=O)(=O)CC)cc4)cc3)CC2)nc2cc(Cl)ccc21` [Example 24, N-{4-[1-(5-Chloro-1-ethyl-1H-benzoimidazol-2-yl)-cyclopropoxy]-phenyl}-2-(4-ethanesulfonyl-phenyl)-acetamide], the IC50 was > 100 nM, the inhibition at 1 µM was 65.7% and the inhibition at 10 µM is 85.6%.

In the case of `CCS(=O)(=O)c1ccc(CC(=O)Nc2ccc(OC3(c4nc5cc(Cl)ccc5n4C)CCC3)cc2)cc1` [Example 25, N-{4-[1-(5-Chloro-1-methyl-1H-benzoimidazol-2-yl)-cyclobutoxy]-phenyl}-2-(4-ethanesulfonyl-phenyl)-acetamide], the IC50 is 50 to 100 nM, the inhibition at 1 µM is 85.3% and the inhibition at 10 µM amounted to 94.2%.

With `CCn1c(C2(Oc3ccc(NC(=O)Cc4ccc(S(=O)(=O)CC)cc4)cc3)CCC2)nc2cc(F)ccc21` [Example 26, 2-(4-Ethanesulfonyl-phenyl)-N-{4-[1-(1-ethyl-5-fluoro-1H-benzoimidazol-2-yl)-cyclobutoxy]-phenyl}-acetamide], the IC50 was 50 to 100 nM, the inhibition at 1 µM was 80.5% and the inhibition at 10 µM was determined as 90.9%.

For `CCS(=O)(=O)c1ccc(CC(=O)Nc2ccc(OC3(c4nnc5ccc(Cl)cn45)CCC3)cc2)cc1` [Example 27, N-{4-[1-(6-Chloro-[1,2,4]triazolo[4,3-a]pyridin-3-yl)-cyclobutoxy]-phenyl}-2-(4-ethanesulfonyl-phenyl)-acetamide], the IC50 is 50 to 100 nM, the inhibition at 1 µM stood at 69.7% and the inhibition at 10 µM was 90%.

In the case of `CCS(=O)(=O)c1ccc(CC(=O)Nc2ccc(OC(C)(C)c3noc(-c4ccc(Cl)cc4)n3)cc2)cc1` [Example 28, N-(4-{1-[5-(4-Chloro-phenyl)-[1,2,4]oxadiazol-3-yl]-1-methyl-ethoxy}-phenyl)-2-(4-ethanesulfonyl-phenyl)-acetamide], the inhibition at 1 µM turned out to be 61.1% and the inhibition at 10 µM was 84.4%.

Regarding `CCS(=O)(=O)c1ccc(CC(=O)Nc2ccc(OC(C)(C)Cn3ccc4cc(Cl)ccc43)cc2)cc1` [Example 29, N-(4-{[1-(5-Chloro-1H-indol-1-yl)-2-methylpropan-2-yl]oxy}phenyl)-2-[4-(ethylsulfonyl)phenyl]acetamide], the IC50 was < 50 nM, the inhibition at 1 µM is 80.3% and the inhibition at 10 µM worked out at 82.8%.

With `CCS(=O)(=O)c1ccc(CC(=O)Nc2ccc(OC(C)(C)Cn3c(C)cc4cc(F)ccc43)cc2)cc1` [Example 30, 2-[4-(Ethylsulfonyl)phenyl]-N-(4-{[1-(5-fluoro-2-methyl-1H-indol-1-yl)-2-methylpropan-2-yl]oxy}phenyl)acetamide], the inhibition at 1 µM came to 67.7% and the inhibition at 10 µM is 70.7%.

Consider `CCS(=O)(=O)c1ccc(CC(=O)Nc2ccc(OC3(c4ccc(Cl)cc4)CCC3)cc2)cc1` [Example 31, N-{4-[1-(4-Chloro-phenyl)-cyclobutoxy]-phenyl}-2-(4-ethanesulfonyl-phenyl)-acetamide], for which the IC50 lay in the range of 50 to 100 nM, the inhibition at 1 µM worked out at 81.9% and the inhibition at 10 µM came out at 89.1%.

With `CCS(=O)(=O)c1ccc(CC(=O)Nc2ccc(OC3(c4ccc(Cl)c(F)c4)CCC3)cc2)cc1` [Example 32, N-(4-{[1-(4-Chloro-3-fluorophenyl)cyclobutyl]oxy}phenyl)-2-[4-(ethylsulfonyl)phenyl]acetamide], the IC50 is < 50 nM, the inhibition at 1 µM turned out to be 83.7% and the inhibition at 10 µM is 88.5%.

Consider `CCS(=O)(=O)c1ccc(CC(=O)Nc2ccc(OC3(c4ccc(Cl)cc4F)CCC3)cc2)cc1` [Example 33, N-(4-{[1-(4-Chloro-2-fluorophenyl)cyclobutyl]oxy}phenyl)-2-[4-(ethylsulfonyl)phenyl]acetamide], for which the inhibition at 1 µM worked out at 76.7% and the inhibition at 10 µM came out at 81.8%.

With `CCS(=O)(=O)c1ccc(CC(=O)Nc2ccc(OC3(c4ccc(F)c(F)c4)CCC3)cc2)cc1` [Example 34, N-{4-[1-(3,4-Difluoro-phenyl)-cyclobutoxy]-phenyl}-2-(4-ethanesulfonyl-phenyl)-acetamide], the IC50 was < 50 nM, the inhibition at 1 µM was 86.6% and the inhibition at 10 µM is 89.7%.

Regarding `CCS(=O)(=O)c1ccc(CC(=O)Nc2ccc(OC3(c4ccc(F)c(F)c4)CCOCC3)cc2)cc1` [Example 35, N-{4-[4-(3,4-Difluoro-phenyl)-tetrahydro-pyran-4-yloxy]-phenyl}-2-(4-ethanesulfonyl-phenyl)-acetamide], the IC50 was 50 to 100 nM, the inhibition at 1 µM worked out at 79.5% and the inhibition at 10 µM was determined as 86.7%.

On to `CCS(=O)(=O)c1ccc(CC(=O)Nc2ccc(OC3(c4ccc(Cl)cc4F)CCOCC3)cc2)cc1` [Example 36, N-(4-{[4-(4-Chloro-2-fluorophenyl)tetrahydro-2H-pyran-4-yl]oxy}phenyl)-2-[4-(ethylsulfonyl)phenyl]acetamide], for which the inhibition at 1 µM is 69.9% and the inhibition at 10 µM worked out at 74.7%.

Take `CCS(=O)(=O)c1ccc(CC(=O)Nc2ccc(OC3(c4ccc(Cl)cc4)CCOCC3)cc2)cc1` [Example 37, N-{4-[4-(4-Chlorophenyl)-tetrahydro-pyran-4-yloxy]-phenyl}-2-(4-ethanesulfonyl-phenyl)-acetamide]: the IC50 was > 100 nM, the inhibition at 1 µM was 80.8% and the inhibition at 10 µM is 83.2%.

With `CCS(=O)(=O)c1ccc(CC(=O)Nc2ccc(OC3(c4ccc(Cl)c(F)c4)CCOCC3)cc2)cc1` [Example 38, N-{4-[4-(4-Chloro-3-fluoro-phenyl)-tetrahydro-pyran-4-yloxy]-phenyl}-2-(4-ethanesulfonyl-phenyl)-acetamide], the IC50 is < 50 nM, the inhibition at 1 µM stood at 85.8% and the inhibition at 10 µM came to 87.8%.

Take `CCS(=O)(=O)c1ccc(CC(=O)Nc2ccc(OC3(c4ccc(Cl)c(Cl)c4)CCOCC3)cc2)cc1` [Example 39, N-{4-[4-(3,4-Dichloro-phenyl)-tetrahydro-pyran-4-yloxy]-phenyl}-2-(4-ethanesulfonyl-phenyl)-acetamide]: the IC50 lay in the range of 50 to 100 nM, the inhibition at 1 µM was found to be 87.7% and the inhibition at 10 µM was 94.8%.

For `CCS(=O)(=O)c1ccc(CC(=O)Nc2ccc(OC3(c4ccc(Cl)cc4Cl)CCOCC3)cc2)cc1` [Example 40, N-{4-[4-(2,4-Dichloro-phenyl)-tetrahydro-pyran-4-yloxy]-phenyl}-2-(4-ethanesulfonyl-phenyl)-acetamide], the IC50 was < 50 nM, the inhibition at 1 µM is 77.4% and the inhibition at 10 µM came to 81.9%.

As for `CCS(=O)(=O)c1ccc(CC(=O)Nc2ccc(OC3(c4ccc(C(F)(F)F)c(F)c4)CCOCC3)cc2)cc1` [Example 41, 2-(4-Ethanesulfonyl-phenyl)-N-{4-[4-(3-fluoro-4-trifluoromethyl-phenyl)-tetrahydro-pyran-4-yloxy]-phenyl}-acetamide], the IC50 is > 100 nM, the inhibition at 1 µM is 78% and the inhibition at 10 µM is 87.2%.

On to `CCS(=O)(=O)c1ccc(CC(=O)Nc2ccc(OC3(c4ccc(F)c(C(F)(F)F)c4)CCOCC3)cc2)cc1` [Example 42, 2-(4-Ethanesulfonyl-phenyl)-N-{4-[4-(4-fluoro-3-trifluoromethyl-phenyl)-tetrahydro-pyran-4-yloxy]-phenyl}-acetamide], for which the inhibition at 1 µM amounted to 65.9% and the inhibition at 10 µM stood at 86%.

Take `CCS(=O)(=O)c1ccc(CC(=O)Nc2ccc(OC3(c4ccc(Cl)c(F)c4)CCNCC3)cc2)cc1` [Example 43, N-(4-{[4-(4-Chloro-3-fluorophenyl)piperidin-4-yl]oxy}phenyl)-2-[4-(ethylsulfonyl)phenyl]acetamide]: the inhibition at 1 µM was determined as 27.3% and the inhibition at 10 µM stood at 55%.
